One block for each compound: values may come before it.
Test system: 463943-066-T-J2-PDC complex spheroid growth
Assay: Anticancer human tumor 463943-066-T-J2-PDC patient-derived colon adenocarcinoma cell line growth inhibition [Asc]
Conditions: for IC50: curve of first compound; for viability, T/C: stronger effect = lower value
In short: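 Complex spheroids combining tumor cells with HUVEC endothelial cells and human MSCs, at 37 degrees C, 5% CO2; agents tested alone or combined, half-log dilutions from at or near clinical Cmax, or 10 microM if Cmax unknown.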

[1] = second compound 0.0316 µM, first compound 0.000316 µM
[2] = second compound 0.0316 µM, first compound 0.001 µM
[3] = second compound 0.0316 µM, first compound 0.00316 µM
[4] = second compound 0.0316 µM, first compound 0.01 µM
[5] = second compound 0.0316 µM, first compound 0.0316 µM
[6] = second compound 0.0316 µM, first compound 0.1 µM
[7] = second compound 0.1 µM, first compound 0.000316 µM
[8] = second compound 0.1 µM, first compound 0.001 µM
[9] = second compound 0.1 µM, first compound 0.00316 µM
[10] = second compound 0.1 µM, first compound 0.01 µM
[11] = second compound 0.1 µM, first compound 0.0316 µM
[12] = second compound 0.1 µM, first compound 0.1 µM
[13] = second compound 0.316 µM, first compound 0.000316 µM
[14] = second compound 0.316 µM, first compound 0.001 µM
[15] = second compound 0.316 µM, first compound 0.00316 µM
[16] = second compound 0.316 µM, first compound 0.01 µM
[17] = second compound 0.316 µM, first compound 0.0316 µM
[18] = second compound 0.316 µM, first compound 0.1 µM
[19] = second compound 1 µM, first compound 0.000316 µM
[20] = second compound 1 µM, first compound 0.001 µM
[21] = second compound 1 µM, first compound 0.00316 µM
[22] = second compound 1 µM, first compound 0.01 µM
[23] = second compound 1 µM, first compound 0.0316 µM
[24] = second compound 1 µM, first compound 0.1 µM
[25] = second compound 3.16 µM, first compound 0.000316 µM
[26] = second compound 3.16 µM, first compound 0.001 µM
[27] = second compound 3.16 µM, first compound 0.00316 µM
[28] = second compound 3.16 µM, first compound 0.01 µM
[29] = second compound 3.16 µM, first compound 0.0316 µM
[30] = second compound 3.16 µM, first compound 0.1 µM
[31] = second compound 10 µM, first compound 0.000316 µM
[32] = second compound 10 µM, first compound 0.001 µM
[33] = second compound 10 µM, first compound 0.00316 µM
[34] = second compound 10 µM, first compound 0.01 µM
[35] = second compound 10 µM, first compound 0.0316 µM
[36] = second compound 10 µM, first compound 0.1 µM
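Further: compound exposure lasted 7 days.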
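Wherever viability, T/C is given: 100% = DMSO vehicle control wells.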

IC50 (second compound 0.0316 µM): > 100 nM | IC50 (second compound 0.1 µM): > 100 nM | IC50 (second compound 0.316 µM): > 100 nM | IC50 (second compound 1 µM): > 100 nM | IC50 (second compound 3.16 µM): > 100 nM | IC50 (second compound 10 µM): < 0.316 nM
Structure (SMILES): NC1CCC(NC2CC2c2ccccc2)CC1 (stereo not drawn) + Cc1c(S(C)(=O)=O)c(-c2cc(F)cc(N3CCN(c4ccc(NS(=O)(=O)c5ccc(NC(CCN6CCC(C(=O)OCCCP(=O)(O)O)CC6)CSc6ccccc6)c(S(=O)(=O)C(F)(F)F)c5)cc4)CC3)c2)c(-c2ccc(Cl)cc2)n1C(C)C
viability, T/C [1]: 88% | viability, T/C [2]: 82.3% | viability, T/C [3]: 81.4% | viability, T/C [4]: 84.3% | viability, T/C [5]: 88.5% | viability, T/C [6]: 80.5% | viability, T/C [7]: 94.4% | viability, T/C [8]: 85.5% | viability, T/C [9]: 95.6% | viability, T/C [10]: 82.7% | viability, T/C [11]: 87.7% | viability, T/C [12]: 76.9% | viability, T/C [13]: 88.1% | viability, T/C [14]: 81.7% | viability, T/C [15]: 77.9% | viability, T/C [16]: 85% | viability, T/C [17]: 80% | viability, T/C [18]: 80.2% | viability, T/C [19]: 75.3% | viability, T/C [20]: 72.5% | viability, T/C [21]: 73.8% | viability, T/C [22]: 71.9% | viability, T/C [23]: 71.9% | viability, T/C [24]: 68.4% | viability, T/C [25]: 59.3% | viability, T/C [26]: 58.6% | viability, T/C [27]: 59.3% | viability, T/C [28]: 58.6% | viability, T/C [29]: 60.1% | viability, T/C [30]: 56.1% | viability, T/C [31]: 45.1% | viability, T/C [32]: 48.8% | viability, T/C [33]: 51.6% | viability, T/C [34]: 49.1% | viability, T/C [35]: 52.3% | viability, T/C [36]: 52.6%

IC50 (second compound 0.0316 µM): > 1000 nM | IC50 (second compound 0.1 µM): > 1000 nM | IC50 (second compound 0.316 µM): > 1000 nM | IC50 (second compound 1 µM): > 1000 nM | IC50 (second compound 3.16 µM): > 1000 nM | IC50 (second compound 10 µM): 393 nM
Structure (SMILES): CCN1CCN(Cc2ccc(Nc3ncc(F)c(-c4cc(F)c5nc(C)n(C(C)C)c5c4)n3)nc2)CC1 + Cc1c(S(C)(=O)=O)c(-c2cc(F)cc(N3CCN(c4ccc(NS(=O)(=O)c5ccc(NC(CCN6CCC(C(=O)OCCCP(=O)(O)O)CC6)CSc6ccccc6)c(S(=O)(=O)C(F)(F)F)c5)cc4)CC3)c2)c(-c2ccc(Cl)cc2)n1C(C)C
viability, T/C [3]: 98.2% | viability, T/C [4]: 104% | viability, T/C [5]: 87.9% | viability, T/C [6]: 96.6% | viability, T/C (second compound 0.0316 µM, first compound 0.316 µM): 109% | viability, T/C (second compound 0.0316 µM, first compound 1 µM): 106% | viability, T/C [9]: 94% | viability, T/C [10]: 95.5% | viability, T/C [11]: 92.1% | viability, T/C [12]: 90.5% | viability, T/C (second compound 0.1 µM, first compound 0.316 µM): 103% | viability, T/C (second compound 0.1 µM, first compound 1 µM): 96.8% | viability, T/C [15]: 90.9% | viability, T/C [16]: 91.2% | viability, T/C [17]: 84.4% | viability, T/C [18]: 88.5% | viability, T/C (second compound 0.316 µM, first compound 0.316 µM): 90.3% | viability, T/C (second compound 0.316 µM, first compound 1 µM): 90% | viability, T/C [21]: 79.7% | viability, T/C [22]: 81.3% | viability, T/C [23]: 76% | viability, T/C [24]: 79% | viability, T/C (second compound 1 µM, first compound 0.316 µM): 80.6% | viability, T/C (second compound 1 µM, first compound 1 µM): 72.3% | viability, T/C [27]: 61.8% | viability, T/C [28]: 61.5% | viability, T/C [29]: 62.4% | viability, T/C [30]: 62.9% | viability, T/C (second compound 3.16 µM, first compound 0.316 µM): 60% | viability, T/C (second compound 3.16 µM, first compound 1 µM): 56% | viability, T/C [33]: 49.1% | viability, T/C [34]: 52.6% | viability, T/C [35]: 51.4% | viability, T/C [36]: 52.9% | viability, T/C (second compound 10 µM, first compound 0.316 µM): 51.2% | viability, T/C (second compound 10 µM, first compound 1 µM): 44.8%

IC50 (second compound 0.0316 µM): > 100 nM | IC50 (second compound 0.1 µM): > 100 nM | IC50 (second compound 0.316 µM): > 100 nM | IC50 (second compound 1 µM): > 100 nM | IC50 (second compound 3.16 µM): > 100 nM | IC50 (second compound 10 µM): < 0.316 nM
Structure (SMILES): Cn1ncnc1[C@H]1c2n[nH]c(=O)c3cc(F)cc(c23)N[C@@H]1c1ccc(F)cc1 + Cc1c(S(C)(=O)=O)c(-c2cc(F)cc(N3CCN(c4ccc(NS(=O)(=O)c5ccc(NC(CCN6CCC(C(=O)OCCCP(=O)(O)O)CC6)CSc6ccccc6)c(S(=O)(=O)C(F)(F)F)c5)cc4)CC3)c2)c(-c2ccc(Cl)cc2)n1C(C)C
viability, T/C [1]: 100% | viability, T/C [2]: 91.8% | viability, T/C [3]: 93.6% | viability, T/C [4]: 102% | viability, T/C [5]: 92.2% | viability, T/C [6]: 83% | viability, T/C [7]: 93% | viability, T/C [8]: 94% | viability, T/C [9]: 87.2% | viability, T/C [10]: 91.6% | viability, T/C [11]: 92.3% | viability, T/C [12]: 80.1% | viability, T/C [13]: 91.1% | viability, T/C [14]: 82% | viability, T/C [15]: 84.5% | viability, T/C [16]: 80.2% | viability, T/C [17]: 86.7% | viability, T/C [18]: 83.1% | viability, T/C [19]: 84.9% | viability, T/C [20]: 74.4% | viability, T/C [21]: 76.6% | viability, T/C [22]: 79.8% | viability, T/C [23]: 85.2% | viability, T/C [24]: 71.2% | viability, T/C [25]: 61.7% | viability, T/C [26]: 58.1% | viability, T/C [27]: 61% | viability, T/C [28]: 61% | viability, T/C [29]: 68.3% | viability, T/C [30]: 60.8% | viability, T/C [31]: 44.8% | viability, T/C [32]: 50.5% | viability, T/C [33]: 47.6% | viability, T/C [34]: 46.8% | viability, T/C [35]: 56.2% | viability, T/C [36]: 45.6%

IC50 (second compound 0.00316 µM): > 100 nM | IC50 (second compound 0.01 µM): > 100 nM | IC50 (second compound 0.0316 µM): > 100 nM | IC50 (second compound 0.1 µM): > 100 nM | IC50 (second compound 0.316 µM): > 100 nM | IC50 (second compound 1 µM): > 100 nM
Structure (SMILES): Cn1ncnc1[C@H]1c2n[nH]c(=O)c3cc(F)cc(c23)N[C@@H]1c1ccc(F)cc1 + CNC(C)C(=O)NC1CN(S(=O)(=O)c2cccc(S(=O)(=O)N3CCC4CCC(C(=O)NC(c5ccccc5)c5ccccc5)N4C(=O)C(NC(=O)C(C)NC)C3)c2)CCC2CCC(C(=O)NC(c3ccccc3)c3ccccc3)N2C1=O
viability, T/C (second compound 0.00316 µM, first compound 0.000316 µM): 92.7% | viability, T/C (second compound 0.00316 µM, first compound 0.001 µM): 91.4% | viability, T/C (second compound 0.00316 µM, first compound 0.00316 µM): 94.3% | viability, T/C (second compound 0.00316 µM, first compound 0.01 µM): 94% | viability, T/C (second compound 0.00316 µM, first compound 0.0316 µM): 101% | viability, T/C (second compound 0.00316 µM, first compound 0.1 µM): 92.4% | viability, T/C (second compound 0.01 µM, first compound 0.000316 µM): 92.4% | viability, T/C (second compound 0.01 µM, first compound 0.001 µM): 89.9% | viability, T/C (second compound 0.01 µM, first compound 0.00316 µM): 94.3% | viability, T/C (second compound 0.01 µM, first compound 0.01 µM): 94.8% | viability, T/C (second compound 0.01 µM, first compound 0.0316 µM): 97.3% | viability, T/C (second compound 0.01 µM, first compound 0.1 µM): 87.2% | viability, T/C [1]: 91.6% | viability, T/C [2]: 97.8% | viability, T/C [3]: 99.2% | viability, T/C [4]: 94% | viability, T/C [5]: 103% | viability, T/C [6]: 85.6% | viability, T/C [7]: 104% | viability, T/C [8]: 93.9% | viability, T/C [9]: 100% | viability, T/C [10]: 91.9% | viability, T/C [11]: 105% | viability, T/C [12]: 93.9% | viability, T/C [13]: 98.3% | viability, T/C [14]: 93% | viability, T/C [15]: 89.4% | viability, T/C [16]: 93% | viability, T/C [17]: 99.7% | viability, T/C [18]: 85.4% | viability, T/C [19]: 89.9% | viability, T/C [20]: 86.8% | viability, T/C [21]: 84.2% | viability, T/C [22]: 87.5% | viability, T/C [23]: 80.8% | viability, T/C [24]: 83.2%

— PubChem BioAssay AID1963422 (Molecular Pharmacology Branch, DTP, NCI, 2024)
